The text below walks through data of patent US20080293696A1, “2-Aminoarylcarboxamides Useful as Cancer Chemotherapeutic Agents” (Bayer Pharmaceuticals Corporation, priority 2004, published 2008).

The subject of the test is PAKT/PKB (p-(S473) AKT) in H209 small cell lung carcinoma cells stimulated with Stem Cell Factor. The experiment in a line: PAKT/PKB Cytoblot Assay with H209 cells (SCF-stimulated p-(S473) AKT). Type of test: cell-based. As to conditions: Homo sapiens, NCI-H209, compound 1 hour, SCF 25 ng/mL 5 minutes. The gist of the method: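 H209 SCLC cells kept overnight in RPMI with 0.1% BSA were pretreated 1 h at 37 °C with compound (0.01–10 μM final), then stimulated with SCF 25 ng/mL for 5 min. After formaldehyde/methanol fixation, p-(S473) AKT was detected in-cell with HRP secondary and ECL chemiluminescence, and IC50 was derived.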

Where [1] appears, read: group: between 500 nM and 1 μM (units in value).

A value given as a limit tells only on which side of the number the result lay.

The molecule `CC(CN(C)C)NC(=O)c1cc(CNc2ccccc2C(=O)Nc2ccc3c(c2)OC(F)(F)O3)ccn1` (centres unmarked) [Example 116, 4-{[(2-{[(2,2-difluoro-1,3-benzodioxol-5-yl)amino]carbonyl}phenyl)amino]methyl}-N-[2-(dimethylamino)-1-methylethyl]pyridine-2-carboxamide] gave an IC50 (group: between 1 and 3 μM) of 1000 to 3000 nM.
The molecule `O=C(NC1CC1)c1cc(CNc2ccccc2C(=O)Nc2ccc3c(c2)OC(F)(F)O3)ccn1` [Example 74, N-cyclopropyl-4-{[(2-{[(2,2-difluoro-1,3-benzodioxol-5-yl)amino]carbonyl}phenyl)amino]methyl}pyridine-2-carboxamide] yielded an IC50 (group: less than 500 nM) of less than 500 nM.
Regarding `NC(=O)c1cc(CNc2ccccc2C(=O)Nc2ccc3c(c2)OC(F)(F)O3)ccn1` [Example 75, 4-{[(2-{[(2,2-Difluoro-1,3-benzodioxol-5-yl)amino]carbonyl}phenyl)amino]methyl}pyridine-2-carboxamide], for the setting “group: less than 500 nM”, the IC50 was less than 500 nM.
For `COc1cccc(C(=O)Nc2ccc3c(c2)OC(F)(F)C(F)(F)O3)c1NCc1ccncc1` [Example 7, 3-methoxy-2-[(pyridin-4-ylmethyl)amino]-N-(2,2,3,3-tetrafluoro-2,3-dihydro-1,4-benzodioxin-6-yl)benzamide], the IC50 (group: between 1 and 3 μM) fell in the range of 1000 to 3000 nM.
The molecule `N#Cc1cc(CNc2ccc(F)cc2C(=O)Nc2ccc3c(c2)OC(F)(F)O3)ccn1` [Example 30, 2-{[(2-cyanopyridin-4-yl)methyl]amino}-N-(2,2-difluoro-1,3-benzodioxol-5-yl)-5-fluorobenzamide] gave an IC50 (group: less than 500 nM) of less than 500 nM.
Still for that read-out and setting: for `CCCCNC(=O)Nc1cc(CNc2ccccc2C(=O)Nc2ccc3c(c2)OC(F)(F)O3)ccn1` [Example 170, 2-{[(2-{[(butylamino)carbonyl]amino}pyridin-4-yl)methyl]amino}-N-(2,2-difluoro-1,3-benzodioxol-5-yl)benzamide] the value was less than 500 nM; for `O=C(NCc1ccncc1)c1cc(CNc2ccccc2C(=O)Nc2ccc3c(c2)OC(F)(F)O3)ccn1` [Example 104, 4-{[(2-{[(2,2-difluoro-1,3-benzodioxol-5-yl)amino]carbonyl}phenyl)amino]methyl}-N-(pyridin-4-ylmethyl)pyridine-2-carboxamide], less than 500 nM.
Molecule `CCOC(=O)CCC(=O)N(C(=O)CCC(=O)OCC)c1cc(CNc2ccccc2C(=O)Nc2ccc3c(c2)OC(F)(F)O3)ccn1` [Example 158, diethyl 4,4′-[(4-{[(2-{[(2,2-difluoro-1,3-benzodioxol-5-yl)amino]carbonyl}phenyl)amino]methyl}pyridin-2-yl)imino]bis(4-oxobutanoate)] came in with an IC50 (group: less than 500 nM) of less than 500 nM.
Take `COCCOCC(=O)Nc1cc(CNc2ccccc2C(=O)Nc2ccc3c(c2)OC(F)(F)O3)ccn1` [Example 154, N-(2,2-difluoro-1,3-benzodioxol-5-yl)-2-{[(2{[(2-methoxyethoxy)acetyl]amino}pyridin-4-yl)methyl]amino}benzamide]: the IC50 under setting [1] fell in the range of 500 to 1000 nM.
Take `COc1cccc(NC(=O)Nc2cc(CNc3ccccc3C(=O)Nc3ccc4c(c3)OC(F)(F)O4)ccn2)c1` [Example 167, N-(2,2-difluoro-1,3-benzodioxol-5-yl)-2-({[2-({[(3-methoxyphenyl)amino]carbonyl}amino)pyridin-4-yl]methyl}amino)benzamide]: for the setting “group: between 1 and 3 μM”, the IC50 lay within 1000 to 3000 nM.
Under setting [1], `N#Cc1cc(CNc2cc(F)ccc2C(=O)Nc2ccc3c(c2)OC(F)(F)C(F)(F)O3)ccn1` [Example 28, 2-{[(2-cyanopyridin-4-yl)methyl]amino}-4-fluoro-N-(2,2,3,3-tetrafluoro-2,3-dihydro-1,4-benzodioxin-6-yl)benzamide] returned an IC50 of 500 to 1000 nM.
Still for that read-out and setting: for `N#Cc1cc(CNc2cc(F)c(F)cc2C(=O)Nc2ccc3c(c2)OC(F)(F)C(F)(F)O3)ccn1` [Example 38, 2-{[(2-cyanopyridin-4-yl)methyl]amino}-4,5-difluoro-N-(2,2,3,3-tetrafluoro-2,3-dihydro-1,4-benzodioxin-6-yl)benzamide] the value was 500 to 1000 nM.
For the molecule `Cc1ccc(C(=O)Nc2ccc3c(c2)OC(F)(F)C(F)(F)O3)c(NCc2ccncc2)n1` [Example 13, 6-methyl-2-[(pyridin-4-ylmethyl)amino]-N-(2,2,3,3-tetrafluoro-2,3-dihydro-1,4-benzodioxin-6-yl)nicotinamide], the IC50 (group: less than 500 nM) is less than 500 nM.
In turn, `CN(CCCNC(=O)c1cc(CNc2ccccc2C(=O)Nc2ccc3c(c2)OC(F)(F)O3)ccn1)c1ccccc1` [Example 107, 4-{[(2-{[(2,2-difluoro-1,3-benzodioxol-5-yl)amino]carbonyl}phenyl)amino]methyl}-N-{3-[methyl(phenyl)amino]propyl}pyridine-2-carboxamide] displayed an IC50 (group: between 1 and 3 μM) of 1000 to 3000 nM.
As to `CC1CCCCN1CCCNC(=O)c1cc(CNc2ccccc2C(=O)Nc2ccc3c(c2)OC(F)(F)O3)ccn1` (centres unmarked) [Example 119, 4-{[(2-{[(2,2-difluoro-1,3-benzodioxol-5-yl)amino]carbonyl}phenyl)amino]methyl}-N-[3-(2-methylpiperidin-1-yl)propyl]pyridine-2-carboxamide], under “group: less than 500 nM”, the IC50 was less than 500 nM.
Consider `COc1ccc(CCNC(=O)c2cc(CNc3ccccc3C(=O)Nc3ccc4c(c3)OC(F)(F)O4)ccn2)cc1` [Example 122, 4-{[(2-{[(2,2-difluoro-1,3-benzodioxol-5-yl)amino]carbonyl}phenyl)amino]methyl}-N-[2-(4-methoxyphenyl)ethyl]pyridine-2-carboxamide], for which, for the setting “group: between 1 and 3 μM”, the IC50 lay within 1000 to 3000 nM.
On the same count and under the same terms, as for `O=C(NCCc1cccs1)c1cc(CNc2ccccc2C(=O)Nc2ccc3c(c2)OC(F)(F)O3)ccn1` [Example 128, 4-{[(2-{[(2,2-difluoro-1,3-benzodioxol-5-yl)amino]carbonyl}phenyl)amino]methyl}-N-[2-(2-thienyl)ethyl]pyridine-2-carboxamide], the figure is 1000 to 3000 nM.
`CNC(=O)c1cc(CNc2cc(F)c(F)cc2C(=O)Nc2ccc3c(c2)OC(F)(F)C(F)(F)O3)ccn1` [Example 37, 4-{[(4,5-difluoro-2-{[(2,2,3,3-tetrafluoro-2,3-dihydro-1,4-benzodioxin-6-yl)amino]carbonyl}phenyl)amino]methyl}-N-methylpyridine-2-carboxamide]: the IC50 (group: less than 500 nM) is less than 500 nM.
The same measure, in the same setting: for `O=C(NCc1ccc(N2CCOCC2)cc1)c1cc(CNc2ccccc2C(=O)Nc2ccc3c(c2)OC(F)(F)O3)ccn1` [Example 133, 4-{[(2-{[(2,2-difluoro-1,3-benzodioxol-5-yl)amino]carbonyl}phenyl)amino]methyl}-N-(4-morpholin-4-ylbenzyl)pyridine-2-carboxamide] the value was less than 500 nM.
Take `CCOc1cc(CCNC(=O)c2cc(CNc3ccccc3C(=O)Nc3ccc4c(c3)OC(F)(F)O4)ccn2)ccc1OC` [Example 126, 4-{[(2-{[(2,2-difluoro-1,3-benzodioxol-5-yl)amino]carbonyl}phenyl)amino]methyl}-N-[2-(3-ethoxy-4-methoxyphenyl)ethyl]pyridine-2-carboxamide]: the IC50 (group: between 1 and 3 μM) was in the range of 1000 to 3000 nM.
On the same count and under the same terms, for `O=C(Nc1ccc2c(c1)OC(F)(F)O2)c1cc(F)ccc1NCc1ccnc(C2=NCCN2)c1` [Example 41, N-(2,2-difluoro-1,3-benzodioxol-5-yl)-2-({[2-(4,5-dihydro-1H-imidazol-2-yl)pyridin-4-yl]methyl}amino)-5-fluorobenzamide] the value was 1000 to 3000 nM.
On to `O=C(Nc1ccc2c(c1)OC(F)(F)C(F)(F)O2)c1cnccc1NCc1ccncc1` [Example 14, 4-[(pyridin-4-ylmethyl)amino]-N-(2,2,3,3-tetrafluoro-2,3-dihydro-1,4-benzodioxin-6-yl)nicotinamide], for which the IC50 (group: less than 500 nM) is less than 500 nM.
On the same count and under the same terms, for `CN(C)CCNC(=O)c1cc(CNc2ccccc2C(=O)Nc2ccc3c(c2)OC(F)(F)O3)ccn1` [Example 85, 4-{[(2-{[(2,2-difluoro-1,3-benzodioxol-5-yl)amino]carbonyl}phenyl)amino]methyl}-N-[2-(dimethylamino)ethyl]pyridine-2-carboxamide] the value was less than 500 nM.
The molecule `O=C(NCCCN1CCCC1=O)c1cc(CNc2ccccc2C(=O)Nc2ccc3c(c2)OC(F)(F)O3)ccn1` [Example 123, 4-{[(2-{[(2,2-difluoro-1,3-benzodioxol-5-yl)amino]carbonyl}phenyl)amino]methyl}-N-[3-(2-oxopyrrolodin-1-yl)propyl]pyridine-2-carboxamide] had an IC50 (group: less than 500 nM) of less than 500 nM.
Molecule `O=C(Nc1ccc2c(c1)OC(F)(F)O2)c1ccccc1NCc1ccnc(NCCc2ccccc2)c1` [Example 150, N-(2,2-difluoro-1,3-benzodioxol-5-yl)-2-[({2-[(2-phenylethyl)amino]pyridin-4-yl}methyl)amino]benzamidetrifluoroacetate] showed an IC50 under setting [1] of 500 to 1000 nM.
For the setting “group: less than 500 nM”, `O=C(NCC(O)CO)c1cc(CNc2ccccc2C(=O)Nc2ccc3c(c2)OC(F)(F)O3)ccn1` (centres unmarked) [Example 79, 4-{[(2-{[(2,2-Difluoro-1,3-benzodioxol-5-yl)amino]carbonyl}phenyl)amino]methyl}-N-(2,3-dihydroxypropyl)pyridine-2-carboxamide] came in with an IC50 of less than 500 nM.
Same read-out and setting: for `O=C(NCCCN1CCCCCC1)c1cc(CNc2ccccc2C(=O)Nc2ccc3c(c2)OC(F)(F)O3)ccn1` [Example 113, N-(3-azepan-1-ylpropyl)-4-{[(2-{[(2,2-difluoro-1,3-benzodioxol-5-yl)amino]carbonyl}phenyl)amino]methyl}pyridine-2-carboxamide] the value was less than 500 nM.
Same read-out and setting: as for `COCCCNC(=O)c1cc(CNc2ccccc2C(=O)Nc2ccc3c(c2)OC(F)(F)O3)ccn1` [Example 89, 4-{[(2-{[(2,2-difluoro-1,3-benzodioxol-5-yl)amino]carbonyl}phenyl)amino]methyl}-N-(3-methoxypropyl)pyridine-2-carboxamide], the figure is less than 500 nM; as for `N#Cc1cc(CNc2ccccc2C(=O)Nc2ccc3c(c2)OC(F)(F)O3)ccn1` [Example 25, 2-{[(2-cyanopyridin-4-yl)methyl]amino}-N-(2,2-difluoro-1,3-benzodioxol-5-yl)benzamide], less than 500 nM.
